Measured values reported in ChEMBL document CHEMBL1201862, “PubChem BioAssay data set” (2004).
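All cell lines were grown in 96-well plates and treated with compound for 48 hours. Here, GI50 denotes the concentration required for 50% inhibition of growth.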 Activity calls are given as the source filed them. No stated cut-off is given here; in the data, active = GI50 up to about 1.1 µM and inactive = higher.

Key:
Experiment in all cases: NCI-60 cell line screen, 48 h
TK-10 = tested on: TK-10
SK-MEL-28 = tested on: SK-MEL-28
K562 = tested on: K562
CAKI-1 = tested on: CAKI-1
SW-620 = tested on: SW-620
HL-60 = tested on: HL-60
SNB-75 = tested on: SNB-75
U-251 = tested on: U-251
PC-3 = tested on: PC-3
HCC 2998 = tested on: HCC 2998
HCT-116 = tested on: HCT-116
UACC-257 = tested on: UACC-257
OVCAR-4 = tested on: OVCAR-4
NCI-H460 = tested on: NCI-H460
LOX IMVI = tested on: LOX IMVI
M14 = tested on: M14
OVCAR-3 = tested on: OVCAR-3
A549 = tested on: A549
HOP-62 = tested on: HOP-62
ACHN = tested on: ACHN
SK-MEL-5 = tested on: SK-MEL-5
BT-549 = tested on: BT-549
SR = tested on: SR
DU-145 = tested on: DU-145
UO-31 = tested on: UO-31
CCRF-CEM = tested on: CCRF-CEM
MOLT-4 = tested on: MOLT-4
SK-MEL-2 = tested on: SK-MEL-2
786-0 = tested on: 786-0
MDA-MB-435 = tested on: MDA-MB-435
IGROV-1 = tested on: IGROV-1
SNB-19 = tested on: SNB-19
HCT-15 = tested on: HCT-15
NCI-H226 = tested on: NCI-H226
MDA-MB-231 = tested on: MDA-MB-231
HT-29 = tested on: HT-29
NCI-H23 = tested on: NCI-H23
SF-268 = tested on: SF-268
OVCAR-5 = tested on: OVCAR-5
SN12C = tested on: SN12C
T47D = tested on: T47D
MCF7 = tested on: MCF7
UACC-62 = tested on: UACC-62
NCI-H522 = tested on: NCI-H522
RPMI-8226 = tested on: RPMI-8226
Malme-3M = tested on: Malme-3M
A498 = tested on: A498
OVCAR-8 = tested on: OVCAR-8
RXF 393 = tested on: RXF 393
SK-OV-3 = tested on: SK-OV-3
SF-539 = tested on: SF-539
COLO 205 = tested on: COLO 205
NCI/ADR-RES = tested on: NCI/ADR-RES
EKVX = tested on: EKVX
Hs-578T = tested on: Hs-578T
KM12 = tested on: KM12
HOP-92 = tested on: HOP-92
SF-295 = tested on: SF-295

NC(CCCCNC(=O)CNC(=O)OCc1ccccc1)C(=O)NC(CCCCNC(=O)CNC(=O)OCc1ccccc1)C(=O)NC(CCCCNC(=O)CNC(=O)OCc1ccccc1)C(=O)NC(CCCCNC(=O)CNC(=O)OCc1ccccc1)C(=O)NC(CCCCNC(=O)CNC(=O)OCc1ccccc1)C(=O)NC(CCCCNC(=O)CNC(=O)OCc1ccccc1)C(=O)O (configuration not stated)
GI50 (TK-10): > 75 µM (inactive)
GI50 (SK-MEL-28): > 75 µM (inactive)
GI50 (K562): > 75 µM (inactive)
GI50 (CAKI-1): > 75 µM (inactive)
GI50 (SW-620): > 75 µM (inactive)
GI50 (HL-60): > 75 µM (inactive)
GI50 (SNB-75): > 75 µM (inactive)
GI50 (U-251): > 75 µM (inactive)
GI50 (PC-3): > 75 µM (inactive)
GI50 (HCC 2998): > 75 µM (inactive)
GI50 (HCT-116): > 75 µM (inactive)
GI50 (UACC-257): > 75 µM (inactive)
GI50 (OVCAR-4): > 75 µM (inactive)
GI50 (NCI-H460): > 75 µM (inactive)
GI50 (LOX IMVI): > 75 µM (inactive)
GI50 (M14): > 75 µM (inactive)
GI50 (OVCAR-3): > 75 µM (inactive)
GI50 (A549): > 75 µM (inactive)
GI50 (HOP-62): > 75 µM (inactive)
GI50 (ACHN): > 75 µM (inactive)
GI50 (SK-MEL-5): > 75 µM (inactive)
GI50 (BT-549): > 75 µM (inactive)
GI50 (SR): > 75 µM (inactive)
GI50 (DU-145): > 75 µM (inactive)
GI50 (UO-31): > 75 µM (inactive)
GI50 (CCRF-CEM): > 75 µM (inactive)
GI50 (MOLT-4): > 75 µM (inactive)
GI50 (SK-MEL-2): > 75 µM (inactive)
GI50 (786-0): > 75 µM (inactive)
GI50 (MDA-MB-435): > 75 µM (inactive)
GI50 (IGROV-1): > 75 µM (inactive)
GI50 (SNB-19): > 75 µM (inactive)
GI50 (HCT-15): > 75 µM
GI50 (NCI-H226): > 75 µM (inactive)
GI50 (MDA-MB-231): > 75 µM (inactive)
GI50 (HT-29): > 75 µM (inactive)
GI50 (NCI-H23): > 75 µM (inactive)
GI50 (SF-268): > 75 µM (inactive)
GI50 (OVCAR-5): > 75 µM (inactive)
GI50 (SN12C): > 75 µM (inactive)
GI50 (T47D): > 75 µM (inactive)
GI50 (MCF7): > 75 µM (inactive)
GI50 (UACC-62): > 75 µM (inactive)
GI50 (NCI-H522): 16.9 µM (inactive)
GI50 (RPMI-8226): > 75 µM (inactive)
GI50 (Malme-3M): > 75 µM (inactive)
GI50 (A498): > 75 µM (inactive)
GI50 (OVCAR-8): > 75 µM (inactive)

Cn1c(=O)c2c(nc(N3CCOCC3)n2CCCNCC(O)c2ccc(O)c(O)c2)n(C)c1=O (configuration not stated)
GI50 (TK-10): > 100 µM (inactive)
GI50 (SK-MEL-28): > 100 µM (inactive)
GI50 (K562): > 100 µM (inactive)
GI50 (RXF 393): > 100 µM (inactive)
GI50 (CAKI-1): > 100 µM (inactive)
GI50 (SW-620): > 100 µM (inactive)
GI50 (SNB-75): > 100 µM (inactive)
GI50 (U-251): > 100 µM (inactive)
GI50 (PC-3): > 100 µM (inactive)
GI50 (HCT-116): > 100 µM (inactive)
GI50 (UACC-257): > 100 µM (inactive)
GI50 (SK-OV-3): > 100 µM (inactive)
GI50 (SF-539): > 100 µM (inactive)
GI50 (OVCAR-4): > 100 µM (inactive)
GI50 (NCI-H460): > 100 µM (inactive)
GI50 (COLO 205): > 100 µM (inactive)
GI50 (LOX IMVI): > 100 µM (inactive)
GI50 (M14): > 100 µM (inactive)
GI50 (NCI/ADR-RES): > 100 µM (inactive)
GI50 (OVCAR-3): > 100 µM (inactive)
GI50 (A549): > 100 µM (inactive)
GI50 (HOP-62): > 100 µM (inactive)
GI50 (ACHN): > 100 µM (inactive)
GI50 (SK-MEL-5): > 100 µM (inactive)
GI50 (BT-549): > 100 µM (inactive)
GI50 (SR): 10 µM (inactive)
GI50 (DU-145): > 100 µM (inactive)
GI50 (UO-31): > 100 µM (inactive)
GI50 (CCRF-CEM): > 100 µM (inactive)
GI50 (MOLT-4): 20.8 µM (inactive)
GI50 (SK-MEL-2): > 100 µM (inactive)
GI50 (786-0): > 100 µM (inactive)
GI50 (MDA-MB-435): 38.9 µM (inactive)
GI50 (IGROV-1): > 100 µM (inactive)
GI50 (SNB-19): > 100 µM (inactive)
GI50 (HCT-15): > 100 µM
GI50 (NCI-H226): > 100 µM (inactive)
GI50 (EKVX): > 100 µM (inactive)
GI50 (MDA-MB-231): 0.0262 µM (active)
GI50 (HT-29): > 100 µM (inactive)
GI50 (Hs-578T): > 100 µM (inactive)
GI50 (NCI-H23): > 100 µM (inactive)
GI50 (SF-268): > 100 µM (inactive)
GI50 (OVCAR-5): 23.9 µM (inactive)
GI50 (KM12): > 100 µM (inactive)
GI50 (SN12C): 81.8 µM (inactive)
GI50 (HOP-92): > 100 µM (inactive)
GI50 (SF-295): > 100 µM (inactive)
GI50 (T47D): > 100 µM (inactive)
GI50 (MCF7): > 100 µM (inactive)
GI50 (UACC-62): > 100 µM (inactive)
GI50 (NCI-H522): > 100 µM (inactive)
GI50 (RPMI-8226): > 100 µM (inactive)
GI50 (Malme-3M): > 100 µM (inactive)
GI50 (A498): > 100 µM (inactive)
GI50 (OVCAR-8): 25.4 µM (inactive)

CCOC(=O)CN1C(=O)NC(C)(c2ccccc2)C1=O (configuration not stated)
GI50 (TK-10): > 100 µM (inactive)
GI50 (SK-MEL-28): > 100 µM (inactive)
GI50 (K562): > 100 µM (inactive)
GI50 (RXF 393): > 100 µM (inactive)
GI50 (CAKI-1): > 100 µM (inactive)
GI50 (SW-620): > 100 µM (inactive)
GI50 (SNB-75): > 100 µM (inactive)
GI50 (U-251): > 100 µM (inactive)
GI50 (PC-3): > 100 µM (inactive)
GI50 (HCC 2998): > 100 µM (inactive)
GI50 (HCT-116): > 100 µM (inactive)
GI50 (UACC-257): > 100 µM (inactive)
GI50 (SK-OV-3): > 100 µM (inactive)
GI50 (SF-539): > 100 µM (inactive)
GI50 (OVCAR-4): > 100 µM (inactive)
GI50 (COLO 205): > 100 µM (inactive)
GI50 (LOX IMVI): > 100 µM (inactive)
GI50 (M14): > 100 µM (inactive)
GI50 (NCI/ADR-RES): > 100 µM (inactive)
GI50 (OVCAR-3): > 100 µM (inactive)
GI50 (A549): > 100 µM (inactive)
GI50 (HOP-62): > 100 µM (inactive)
GI50 (ACHN): > 100 µM (inactive)
GI50 (SK-MEL-5): > 100 µM (inactive)
GI50 (BT-549): > 100 µM (inactive)
GI50 (DU-145): > 100 µM (inactive)
GI50 (UO-31): > 100 µM (inactive)
GI50 (CCRF-CEM): > 100 µM (inactive)
GI50 (MOLT-4): > 100 µM (inactive)
GI50 (SK-MEL-2): > 100 µM (inactive)
GI50 (786-0): > 100 µM (inactive)
GI50 (MDA-MB-435): > 100 µM (inactive)
GI50 (IGROV-1): > 100 µM (inactive)
GI50 (SNB-19): > 100 µM (inactive)
GI50 (HCT-15): > 100 µM
GI50 (EKVX): > 100 µM (inactive)
GI50 (MDA-MB-231): > 100 µM (inactive)
GI50 (HT-29): > 100 µM (inactive)
GI50 (Hs-578T): > 100 µM (inactive)
GI50 (NCI-H23): > 100 µM (inactive)
GI50 (SF-268): > 100 µM (inactive)
GI50 (OVCAR-5): > 100 µM (inactive)
GI50 (KM12): > 100 µM (inactive)
GI50 (SN12C): > 100 µM (inactive)
GI50 (HOP-92): > 100 µM (inactive)
GI50 (SF-295): > 100 µM (inactive)
GI50 (T47D): > 100 µM (inactive)
GI50 (MCF7): > 100 µM (inactive)
GI50 (UACC-62): > 100 µM (inactive)
GI50 (NCI-H522): > 100 µM (inactive)
GI50 (RPMI-8226): > 100 µM (inactive)
GI50 (A498): > 100 µM (inactive)
GI50 (OVCAR-8): > 100 µM (inactive)
